In US6914045B2, “Glycopeptide antibiotics” (Wyeth Holdings Corporation, priority 2001, dated 2005):

Columns and labels:
Experiment in all cases: in vitro antibacterial evaluation, MIC by broth dilution
Type in all cases: cell-based
[1] = tested on: Escherichia coli; settings: 18 hours at 35° C.
How it was run: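 Broth dilution in Muller-Hinton II medium per NCCLS standard M7-A2, with an inoculum of 5×10^5 CFU/mL and antibiotic tested over 64-0.06 μg/mL. MIC was taken as the lowest concentration inhibiting visible growth.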

[2] = tested on: Enterococcus sp.; settings: broth dilution, 18 hours at 35° C.
How it was run: (§1)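 Following National Committee for Clinical Laboratory Standards recommendations (M7-A2), susceptibility was measured by dilution in Muller-Hinton II […]. Bacteria were seeded at 5×10^5 CFU/mL against compound concentrations from 64 down to 0.06 μg/mL.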

[3] = tested on: Staphylococcus sp.; settings: broth dilution, 18 hours at 35° C.; for MIC Staphylococcus aureus (ATCC 29213): strain ATCC 29213; for MIC Staphylococcus aureus (GC 1131): strain GC 1131; for MIC Staphylococcus aureus (GC 3051): strain GC 3051; for MIC Staphylococcus aureus (GC 3053): strain GC 3053; for MIC Staphylococcus aureus (GC 4541): strain GC 4541; for MIC Staphylococcus aureus (GC 4542): strain GC 4542; for MIC Staphylococcus aureus (GC 4544): strain GC 4544; for MIC Staphylococcus aureus (GC 4545): strain GC 4545
How it was run: as §1

[4] = tested on: Streptococcus sp.; settings: broth dilution, 18 hours at 35° C.
How it was run: as §1

[5] = Enterococcus faecalis (ATCC 29212)
[6] = Enterococcus faecalis (GC 4552)
[7] = Enterococcus faecalis (GC 4553)
[8] = Enterococcus faecalis (GC 4554)
[9] = Enterococcus faecalis (GC 6189)

Di-N-(4-tert-butylbenzyl)-cyclo[glycyl-β-methylphenylalanyl-O-(4-O-hexopyranosylhexopyranosyl)tyrosyl-3-(2-iminoimidazolidin-4-yl)seryl-3-(3-hexoopyranosyl-2-iminoimidazolidin-4-yl)serylseryl] [Example 60a]
16 mg/L: MIC Escherichia coli (GC 4560) [1]
128 mg/L: MIC Enterococcus avium (GC 4558) ([2]; Enterococcus avium (GC 4558)) | MIC Enterococcus faecalis (GC 4553) [2, 7] | MIC Enterococcus faecium (GC 4557) ([2]; Enterococcus faecium (GC 4557)) | MIC Enterococcus avium (GC 4558) [2] | MIC Enterococcus faecalis (GC 4553) [2] | MIC Enterococcus faecium (GC 4557) [2] | MIC Streptococcus pneumoniae (GC 4565) [4] | MIC Streptococcus pneumoniae (GC 4565) ([4]; strain GC 4565)
64 mg/L: MIC Streptococcus pneumoniae (GC 1894) [4] | MIC Streptococcus pneumoniae (GC 1894) ([4]; strain GC 1894)
>128 mg/L: MIC Escherichia coli (ATCC 25922) [1] | MIC Escherichia coli (GC 4559) [1] | MIC Enterococcus faecalis (ATCC 29212) [2, 5] | MIC Enterococcus faecalis (GC 4552) [2, 6] | MIC Enterococcus faecalis (GC 4554) [2, 8] | MIC Enterococcus faecalis (GC 6189) [2, 9] | MIC Enterococcus faecium (GC 2243) ([2]; Enterococcus faecium (GC 2243)) | MIC Enterococcus faecium (GC 4556) ([2]; Enterococcus faecium (GC 4556)) | MIC Enterococcus faecalis (ATCC 29212) [2] | MIC Enterococcus faecalis (GC 2242) [2] | MIC Enterococcus faecalis (GC 2691) [2] | MIC Enterococcus faecalis (GC 3059) [2] | MIC Enterococcus faecalis (GC 4552) [2] | MIC Enterococcus faecalis (GC 4554) [2] | MIC Enterococcus faecalis (GC 6189) [2] | MIC Enterococcus faecium (GC 2243) [2] | MIC Enterococcus faecium (GC 4556) [2] | MIC Enterococcus faecalis (GC 2242) ([2]; strain GC 2242) | MIC Enterococcus faecalis (GC 2691) ([2]; strain GC 2691) | MIC Enterococcus faecalis (GC 3059) ([2]; strain GC 3059) | MIC Staphylococcus aureus (ATCC 29213) [3] | MIC Staphylococcus aureus (GC 1131) [3] | MIC Staphylococcus aureus (GC 3051) [3] | MIC Staphylococcus aureus (GC 3053) [3] | MIC Staphylococcus aureus (GC 4541) [3] | MIC Staphylococcus aureus (GC 4542) [3] | MIC Staphylococcus aureus-SMITH (GC 4543) ([3]; strain GC 4543) | MIC Staphylococcus aureus (GC 4544) [3] | MIC Staphylococcus aureus (GC 4545) [3] | MIC Staphylococcus haemolyticus (GC 4546) ([3]; strain GC 4546) | MIC Coagulase Negative Staphylococcus (GC 4547) ([3]; strain GC 4547) | MIC Coagulase Negative Staphylococcus (GC 4548) ([3]; strain GC 4548) | MIC Coagulase Negative Staphylococcus (GC 4549) ([3]; strain GC 4549) | MIC Coagulase Negative Staphylococcus (GC 4551) ([3]; strain GC 4551) | MIC Coagulase Negative Staphylococcus (GC 6257) ([3]; strain GC 6257) | MIC Streptococcus agalactiae (GC 4564) [4] | MIC Streptococcus pneumoniae (ATCC 6301) [4] | MIC Streptococcus pyogenes (GC 4563) [4] | MIC Streptococcus pneumoniae (ATCC 6301) ([4]; strain ATCC 6301) | MIC Streptococcus pyogenes (GC 4563) ([4]; strain GC 4563) | MIC Streptococcus agalactiae (GC 4564) ([4]; strain GC 4564)

Tri-N-[(phenylmethoxy)carbonyl]-cyclo[glycl-β-methylphenylalanyltyrosyl-3-(2-iminoimidazolidin-4-yl)seryl-3-(3-hexopyranosyl-2-iminoimidazolidin-4-yl)serylseryl] [Example 89]
>64 mg/L: MIC Escherichia coli (ATCC 25922) [1] | MIC Escherichia coli (GC 4559) [1]
32 mg/L: MIC Escherichia coli (GC 4560) [1] | MIC Enterococcus avium (GC 4558) ([2]; Enterococcus avium (GC 4558)) | MIC Enterococcus faecium (GC 4557) ([2]; Enterococcus faecium (GC 4557)) | MIC Enterococcus avium (GC 4558) [2] | MIC Enterococcus faecium (GC 4557) [2] | MIC Coagulase Negative Staphylococcus (GC 4547) [3] | MIC Coagulase Negative Staphylococcus (GC 6257) [3] | MIC Staphylococcus haemolyticus (GC 4546) [3] | MIC Staphylococcus haemolyticus (GC 4546) ([3]; strain GC 4546) | MIC Coagulase Negative Staphylococcus (GC 4547) ([3]; strain GC 4547) | MIC Coagulase Negative Staphylococcus (GC 6257) ([3]; strain GC 6257) | MIC Streptococcus agalactiae (GC 4564) [4] | MIC Streptococcus pyogenes (GC 4563) [4] | MIC Streptococcus pyogenes (GC 4563) ([4]; strain GC 4563) | MIC Streptococcus agalactiae (GC 4564) ([4]; strain GC 4564)
8 mg/L: MIC Streptococcus pneumoniae (GC 4565) [4] | MIC Streptococcus pneumoniae (GC 4565) ([4]; strain GC 4565)
4 mg/L: MIC Streptococcus pneumoniae (GC 1894) [4] | MIC Streptococcus pneumoniae (GC 1894) ([4]; strain GC 1894)
16 mg/L: MIC Streptococcus pneumoniae (ATCC 6301) [4] | MIC Streptococcus pneumoniae (ATCC 6301) ([4]; strain ATCC 6301)
64 mg/L: MIC Enterococcus faecalis (ATCC 29212) [2, 5] | MIC Enterococcus faecalis (GC 4552) [2, 6] | MIC Enterococcus faecalis (GC 4553) [2, 7] | MIC Enterococcus faecalis (GC 4554) [2, 8] | MIC Enterococcus faecalis (GC 6189) [2, 9] | MIC Enterococcus faecium (GC 2243) ([2]; Enterococcus faecium (GC 2243)) | MIC Enterococcus faecium (GC 4556) ([2]; Enterococcus faecium (GC 4556)) | MIC Enterococcus faecalis (ATCC 29212) [2] | MIC Enterococcus faecalis (GC 2242) [2] | MIC Enterococcus faecalis (GC 2691) [2] | MIC Enterococcus faecalis (GC 3059) [2] | MIC Enterococcus faecalis (GC 4552) [2] | MIC Enterococcus faecalis (GC 4553) [2] | MIC Enterococcus faecalis (GC 4554) [2] | MIC Enterococcus faecalis (GC 6189) [2] | MIC Enterococcus faecium (GC 2243) [2] | MIC Enterococcus faecium (GC 4556) [2] | MIC Enterococcus faecalis (GC 2242) ([2]; strain GC 2242) | MIC Enterococcus faecalis (GC 2691) ([2]; strain GC 2691) | MIC Enterococcus faecalis (GC 3059) ([2]; strain GC 3059) | MIC Coagulase Negative Staphylococcus (GC 4548) [3] | MIC Coagulase Negative Staphylococcus (GC 4549) [3] | MIC Coagulase Negative Staphylococcus (GC 4551) [3] | MIC Staphylococcus aureus-SMITH (GC 4543) [3] | MIC Staphylococcus aureus (ATCC 29213) [3] | MIC Staphylococcus aureus (GC 1131) [3] | MIC Staphylococcus aureus (GC 3051) [3] | MIC Staphylococcus aureus (GC 3053) [3] | MIC Staphylococcus aureus (GC 4541) [3] | MIC Staphylococcus aureus (GC 4542) [3] | MIC Staphylococcus aureus-SMITH (GC 4543) ([3]; strain GC 4543) | MIC Staphylococcus aureus (GC 4544) [3] | MIC Staphylococcus aureus (GC 4545) [3] | MIC Coagulase Negative Staphylococcus (GC 4548) ([3]; strain GC 4548) | MIC Coagulase Negative Staphylococcus (GC 4549) ([3]; strain GC 4549) | MIC Coagulase Negative Staphylococcus (GC 4551) ([3]; strain GC 4551)
